Type in all cases: cell-based
Assay [1] has as its system EGFR (Del19/T790M/C797S). The experiment in a line: Cell degradation HTRF assay, BaF3-DTC cells. As to conditions: 16 h treatment; for DC50: HTRF; for DTC Dmax (%): maximum percentage of degradation. How it is done:
(§1) Cell Degradation of Example 1-28
(§2) BaF3-LTC (L858R/T790M/C797S) and BaF3-DTC (Del19/T790M/C797S) cells are treated with compounds diluted in 0.2% DMSO cell culture medium and incubate for 16 h, 37° C., 5% CO2. The final concentration of compounds in all assay is start with 10 uM, 4-fold dilution, total 8 doses were included.
(§3) After 16 h treatment, add HTRF lysis buffer to each well; seal the plate and incubate 1 hour at room temperature on a plate shaker; Once the cells are lysed, 16 μL of cell lysate are transferred to a PE 384-well HTRF detection plate; 4 μL of pre-mixed HTRF antibodies are added to each well; Cover the plate with a plate sealer, spin 1000 rpm for 1 min, Incubate overnight at room temperature; Read on BMG PheraStar with HTRF protocol (337 nm-665 nm-620 nm). The inhibition (degradation) percentage of the compound was calculated by the following equation:
(§4) Inhibition percentage of Compound=100−100×(Signal−low control)/(High control−low control), wherein signal=each test compound group.
(§5) High control=Cell group with added DMSO and without compound, indicating microplate readings without EGFR degradation;
(§6) Dmax is the maximum percentage of inhibition (degradation).
(§7) The IC50 (DC50) value of a compound can be obtained by fitting the following equation
(§8) Y=Bottom+(TOP−Bottom)/(1+((C50/X)^hillslope))
(§9) Wherein, X and Y are known values, and IC50, Hillslope, Top and Bottom are the parameters obtained by fitting with software. Y is the inhibition percentage (calculated from the equation), X is the concentration of the compound; IC50 is the concentration of the compound when the 50% inhibition is reached. The smaller the IC50 value is, the stronger the inhibitory ability of the compound is. Vice versa, the higher the IC50 value is, the weaker the ability the inhibitory ability of the compound is; Hillslope represents the slope of the fitted curve, generally around 1*; Bottom represents the minimum value of the curve obtained by data fitting, which is generally 000±20%; Top represents the maximum value of the curve obtained by data fitting, which is generally 100%±20%. The experimental data were fitted by calculating and analyzing with Dotmatics data analysis software. When Dmax<50%, DC50 will be automatically assigned as larger than […].
A general note: TR-FRET usually uses a lanthanide donor and a delayed reading to cut background.

A further assay concerns the target EGFR (L858R/T790M/C797S) (Homo sapiens, UniProt P00533, C797S/L858R/T790M). The experiment in a line: Cell degradation HTRF assay, BaF3-LTC cells. More on the design: expressed in transfected cells; host or cells: BaF3-LTC. The conditions noted are these: 16 h treatment; for DC50: HTRF; for Dmax: maximum percentage of degradation. How it is done:
as §1, §2, §3, §4, §5, §6, §7, §8, §9

In assay [2] the test system is EGFR (Del19/T790M/C797S). As to the kind of experiment: Cell degradation HTRF assay, H1975-clone #28 cells. The conditions noted are these: H1975-clone #28 (Del19/T790M/C797S) cells, 16 h treatment; for DC50: HTRF, read-out: H1975-clone#28 DTC DC50; for H1975-clone#28 DTC Dmax (%): maximum percentage of degradation. The gist of the method:
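H1975 clones #25 and #28 were treated 16 h at 37° C, 5% CO2 with 8 doses (top 10 uM, 5-fold dilution) in 0.2% DMSO medium. EGFR in lysates read by HTRF (665/620 nm); degradation % relative to DMSO high control; DC50 from 4-parameter fit, Dmax = maximal degradation.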

Structures are written as SMILES.

Sequence of EGFR (L858R/T790M/C797S) (P00533 25-1210 T790M/C797S/L858R): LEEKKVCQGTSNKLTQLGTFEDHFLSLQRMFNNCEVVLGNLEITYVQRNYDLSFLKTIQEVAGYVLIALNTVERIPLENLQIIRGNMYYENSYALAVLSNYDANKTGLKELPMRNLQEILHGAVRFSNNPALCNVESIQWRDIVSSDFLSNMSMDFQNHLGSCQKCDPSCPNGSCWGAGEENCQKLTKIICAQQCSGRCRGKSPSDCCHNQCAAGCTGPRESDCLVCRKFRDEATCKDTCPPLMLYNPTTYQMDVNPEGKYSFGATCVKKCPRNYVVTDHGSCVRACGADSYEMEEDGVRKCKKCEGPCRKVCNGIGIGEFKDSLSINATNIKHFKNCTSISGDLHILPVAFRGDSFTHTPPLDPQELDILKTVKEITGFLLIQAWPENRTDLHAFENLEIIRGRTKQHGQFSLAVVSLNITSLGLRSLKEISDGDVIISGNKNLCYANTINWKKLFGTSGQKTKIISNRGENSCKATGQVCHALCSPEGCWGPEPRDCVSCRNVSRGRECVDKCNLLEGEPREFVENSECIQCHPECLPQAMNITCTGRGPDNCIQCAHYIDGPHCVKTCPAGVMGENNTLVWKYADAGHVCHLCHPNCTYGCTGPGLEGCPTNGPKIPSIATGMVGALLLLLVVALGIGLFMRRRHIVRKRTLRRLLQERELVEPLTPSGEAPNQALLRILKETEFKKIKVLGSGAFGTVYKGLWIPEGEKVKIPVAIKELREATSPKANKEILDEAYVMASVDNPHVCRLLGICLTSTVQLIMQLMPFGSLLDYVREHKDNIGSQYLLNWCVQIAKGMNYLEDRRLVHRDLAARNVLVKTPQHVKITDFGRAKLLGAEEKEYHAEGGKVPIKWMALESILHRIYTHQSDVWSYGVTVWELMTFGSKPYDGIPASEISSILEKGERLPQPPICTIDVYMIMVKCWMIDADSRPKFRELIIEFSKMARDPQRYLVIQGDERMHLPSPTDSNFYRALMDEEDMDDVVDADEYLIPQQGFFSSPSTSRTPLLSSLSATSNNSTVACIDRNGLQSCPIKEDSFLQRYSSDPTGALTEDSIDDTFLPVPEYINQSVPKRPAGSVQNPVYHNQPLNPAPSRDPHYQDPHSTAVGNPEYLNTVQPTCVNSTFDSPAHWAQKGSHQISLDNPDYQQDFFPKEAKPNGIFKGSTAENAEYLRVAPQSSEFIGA

For the molecule `CCc1cc(Nc2ncc(Br)c(Nc3cnc4ccccc4c3P(C)(C)=O)n2)c(OC)cc1N1CCC(N2CCN(C(=O)C3CC4(CC(Nc5cc(F)c(C6CCC(=O)NC6=O)c(F)c5)C4)C3)CC2)CC1` (stereo not shown) [Example 23, 3-(4-((6-(4-(1-(4-((5-bromo-4-((4-(dimethylphosphoryl)quinolin-3-yl)amino)pyrimidin-2-yl)amino)-2-ethyl-5-methoxyphenyl)piperidin-4-yl)piperazine-1-carbonyl)spiro[3.3]heptan-2-yl)amino)-2,6-difluorophenyl)piperidine-2,6-dione], in the assay with EGFR (Del19/T790M/C797S) [1], the DC50 came out at 2.22 nM and the “DTC Dmax (%)” value turned out to be 94.5%. On EGFR (L858R/T790M/C797S), this molecule returned a DC50 of 11.1 nM and a Dmax of 88.6%.
Turning to `CCc1cc(Nc2ncc(Br)c(Nc3cnc4ccccc4c3P(C)(C)=O)n2)c(OC)cc1N1CCC(N2CCN(C(=O)C3CN(c4cc(F)c(C5CCC(=O)NC5=O)c(F)c4)C3)CC2)CC1` (stereo not shown) [Example 20, 3-(4-(3-(4-(1-(4-((5-bromo-4-((4-(dimethylphosphoryl)quinolin-3-yl)amino)pyrimidin-2-yl)amino)-2-ethyl-5-methoxyphenyl)piperidin-4-yl)piperazine-1-carbonyl)azetidin-1-yl)-2,6-difluorophenyl)piperidine-2,6-dione], in the assay with EGFR (Del19/T790M/C797S) [1], it took 4.65 nM to reach half-maximal degradation (DC50) and the “DTC Dmax (%)” value is 96.7%. On EGFR (L858R/T790M/C797S), this molecule came in with a half-maximal degradation concentration (DC50) of 19.5 nM and a Dmax of 89.5%.
Taken in the same sequence, the figures for `CCc1cc(Nc2ncc(Br)c(Nc3cnc4ccccc4c3P(C)(C)=O)n2)c(OC)cc1N1CCC(N2CCN(C(=O)C3CN(c4ccc5c(c4)CN(C4CCC(=O)NC4=O)C5=O)C3)CC2)CC1` (stereo not shown) [Example 16, 3-(5-(3-(4-(1-(4-((5-bromo-4-((4-(dimethylphosphoryl)quinolin-3-yl)amino)pyrimidin-2-yl)amino)-2-ethyl-5-methoxyphenyl)piperidin-4-yl)piperazine-1-carbonyl)azetidin-1-yl)-1-oxoisoindolin-2-yl)piperidine-2,6-dione] were 2.14 nM, 96.98%, 5.05 nM and 89.7%.
As for `CCOc1cc(N2CCC(N3CCN(CCc4cc(F)c(F)c5c4oc(=O)n5C4CCC(=O)NC4=O)CC3)CC2)c(CC)cc1Nc1ncc(Br)c(Nc2cnc3ccccc3c2P(C)(C)=O)n1` (stereo not shown) [Example 136, 3-(7-(2-(4-(1-(4-((5-bromo-4-((4-(dimethylphosphoryl)quinolin-3-yl)amino)pyrimidin-2-yl)amino)-5-ethoxy-2-ethylphenyl)piperidin-4-yl)piperazin-1-yl)ethyl)-4,5-difluoro-2-oxobenzo[d]oxazol-3(2H)-yl)piperidine-2,6-dione], in the assay on EGFR (Del19/T790M/C797S) [2], the half-maximal degradation concentration (DC50) was found to be 0.6 nM and the “H1975-clone#28 DTC Dmax (%)” value is recorded as 81%.
Taken in the same sequence, the figures for `CCc1cc(Nc2ncc(Br)c(Nc3cnc4ccccc4c3P(C)(C)=O)n2)c(OC)cc1N1CCC(N2CCN(CCc3cccc4c3n(CC)c(=O)n4C3CCC(=O)NC3=O)CC2)CC1` (stereo not shown) [Example 163, 3-(4-(2-(4-(1-(4-((5-bromo-4-((4-(dimethylphosphoryl)quinolin-3-yl)amino)pyrimidin-2-yl)amino)-2-ethyl-5-methoxyphenyl)piperidin-4-yl)piperazin-1-yl)ethyl)-3-ethyl-2-oxo-2,3-dihydro-1H-benzo[d]imidazol-1-yl)piperidine-2,6-dione] were 1.1 nM and 86%.
On to `CCc1cc(Nc2ncc(Br)c(Nc3cnc4ccccc4c3P(C)(C)=O)n2)c(OC)cc1N1CCC(N2CCN(CCc3cccc4c3C(C)(C)C(=O)N4C3CCC(=O)NC3=O)CC2)CC1` (stereo not shown) [Example 164, 3-(4-(2-(4-(1-(4-((5-bromo-4-((4-(dimethylphosphoryl)quinolin-3-yl)amino)pyrimidin-2-yl)amino)-2-ethyl-5-methoxyphenyl)piperidin-4-yl)piperazin-1-yl)ethyl)-3,3-dimethyl-2-oxoindolin-1-yl)piperidine-2,6-dione], for which, in the assay on EGFR (Del19/T790M/C797S) [2], the half-maximal degradation concentration (DC50) is 2.1 nM and the “H1975-clone#28 DTC Dmax (%)” value is on record as 81%.
On to `CCc1cc(Nc2ncc(Br)c(Nc3cnc4c(F)c(F)ccc4c3P(C)(C)=O)n2)c(OC)cc1N1CCC(N2CCN(CCc3cc(F)c(C4CCC(=O)NC4=O)c(F)c3)CC2)CC1` (stereo not shown) [Example 173, 3-(4-(2-(4-(1-(4-((5-bromo-4-((4-(dimethylphosphoryl)-7,8-difluoroquinolin-3-yl)amino)pyrimidin-2-yl)amino)-2-ethyl-5-methoxyphenyl)piperidin-4-yl)piperazin-1-yl)ethyl)-2,6-difluorophenyl)piperidine-2,6-dione], for which, in the assay with EGFR (Del19/T790M/C797S) [2], the DC50 was 2.7 nM and the “H1975-clone#28 DTC Dmax (%)” value is recorded as 82%.
On to `CCOc1cc(N2CCC(N3CCN(CCc4cc(F)c(C5CCC(=O)NC5=O)c(F)c4)CC3)CC2)c(C)cc1Nc1ncc(Br)c(Nc2cnc3ccccc3c2P(C)(C)=O)n1` (stereo not shown) [Example 183, 3-(4-(2-(4-(1-(4-((5-bromo-4-((4-(dimethylphosphoryl)quinolin-3-yl)amino)pyrimidin-2-yl)amino)-5-ethoxy-2-methylphenyl)piperidin-4-yl)piperazin-1-yl)ethyl)-2,6-difluorophenyl)piperidine-2,6-dione], for which, in the assay with EGFR (Del19/T790M/C797S) [2], the DC50 worked out at 4.6 nM and the “H1975-clone#28 DTC Dmax (%)” value was determined as 73%.
As for `CCc1cc(Nc2ncc(Br)c(Nc3cnc4c(F)cccc4c3P(C)(C)=O)n2)c(OC)cc1N1CCC(N2CCN(CCC3CCN(c4cc(F)c(C5CCC(=O)NC5=O)c(F)c4)CC3)CC2)CC1` (stereo not shown) [Example 165, 3-(4-(4-(2-(4-(1-(4-((5-bromo-4-((4-(dimethylphosphoryl)-8-fluoroquinolin-3-yl)amino)pyrimidin-2-yl)amino)-2-ethyl-5-methoxyphenyl)piperidin-4-yl)piperazin-1-yl)ethyl)piperidin-1-yl)-2,6-difluorophenyl)piperidine-2,6-dione], in the assay with EGFR (Del19/T790M/C797S) [2], the half-maximal degradation concentration (DC50) came out at 4.2 nM and the “H1975-clone#28 DTC Dmax (%)” value is recorded as 84%.
The matching figures for `CCc1cc(Nc2ncc(Br)c(Nc3cnc4ccccc4c3P(C)(C)=O)n2)c(OC)cc1N1CCC(N2CCN(C(=O)C3CC4(C3)CN(c3cc(F)c(C5CCC(=O)NC5=O)c(F)c3)C4)CC2)CC1` (stereo not shown) [Example 178, 3-(4-(6-(4-(1-(4-((5-bromo-4-((4-(dimethylphosphoryl)quinolin-3-yl)amino)pyrimidin-2-yl)amino)-2-ethyl-5-methoxyphenyl)piperidin-4-yl)piperazine-1-carbonyl)-2-azaspiro[3.3]heptan-2-yl)-2,6-difluorophenyl)piperidine-2,6-dione]: 2.6 nM and 67%.
As to `CCc1cc(Nc2ncc(Br)c(Nc3cnc4ccccc4c3P(C)(C)=O)n2)c(OC)cc1N1CCC(N2CCN(C(=O)CN(C)c3cc(F)c(C4CCC(=O)NC4=O)c(F)c3)CC2)CC1` (stereo not shown) [Example 189, 3-(4-((2-(4-(1-(4-((5-bromo-4-((4-(dimethylphosphoryl)quinolin-3-yl)amino)pyrimidin-2-yl)amino)-2-ethyl-5-methoxyphenyl)piperidin-4-yl)piperazin-1-yl)-2-oxoethyl)(methyl)amino)-2,6-difluorophenyl)piperidine-2,6-dione], in the assay with EGFR (Del19/T790M/C797S) [2], the 50% degradation concentration (DC50) was determined as 2.4 nM and the “H1975-clone#28 DTC Dmax (%)” value is recorded as 77%.

What is called DC50 is the concentration at which degradation of the target reaches its halfway point. Usually Dmax stands for the greatest extent of degradation seen. Low readings indicate shallow degradation, high ones deep degradation.
